# ChEMBL document CHEMBL5725691, “Bromodomain inhibitors” (2018)
# Target: Bromodomain-containing protein 4 (Homo sapiens, UniProt O60885)
# Assay: His-tagged BRD4 was cloned, expressed and purified to homogeneity. […] BRD4 binding and inhibition was assessed by monitoring the interaction of biotinylated H4-tetraacetyl peptide (AnaSpec, H4K5/8/12/16(Ac), biotin-labeled) with the target using the AlphaScreen technology (Life Technologies). […] After 20 min incubation at room temp, Alpha streptavidin donor beads and Nickel Chelate acceptor beads were added to a final concentration of 5 μg/mL.
row,SMILES,IC50
1,Cn1cc(-c2cc(S(C)(=O)=O)ccc2OCC2CC2)c2cc(C(F)(F)F)ccc2c1=O,< 500 nM
2,Cc1cc(-c2cn(CS(C)(=O)=O)c(=O)cc2Oc2ccc(F)cc2F)cn(CC2CC2)c1=O,< 500 nM
3,Cc1c(-c2cc(NS(C)(=O)=O)ccc2Oc2ccc(F)cc2F)cn(C)c(=O)c1C,< 500 nM
4,CCCOc1ccc(S(C)(=O)=O)cc1-c1cn(C)c(=O)c2cnc(-c3cnn(C)c3)nc12,< 500 nM
5,Cc1cc(-c2cc(OCc3ccccc3Cl)cc(S(C)(=O)=O)c2)cn(C)c1=O,< 500 nM

# The remaining lines, values ahead:
row,IC50,SMILES
1,< 500 nM,CCS(=O)(=O)c1ccc(OCC2CC2)c(-c2cn(C)c(=O)c3c2OCC(=O)N3)c1
2,< 500 nM,CCS(=O)(=O)Nc1ncc(Oc2ccc(F)cc2F)c(-c2cc(OC)c(=O)n(C)c2)n1
3,< 500 nM,CCS(=O)(=O)c1ccc(NCC2CC2)c(-c2cc(Cl)c(=O)n(C)c2)c1
